# Assay results taken from ChEMBL document CHEMBL3217590, “Discovery of a new class of dithiocarbamates and rhodanine scaffolds as potent antifungal agents: synthesis, biology and molecular docking” (Medchemcomm, 2012).
# How the values were obtained:
# [1] = tested on: Candida albicans; experiment: Antifungal activity against Candida albicans after 24 to 48 hrs by broth microdilution technique; assay type: functional
# [2] = tested on: Candida parapsilosis; experiment: Antifungal activity against Candida parapsilosis ATCC22019 after 24 to 48 hrs by broth microdilution technique; assay type: functional; conditions: Lodderomyces parapsilosis
# [3] = tested on: Sporothrix schenckii; experiment: Antifungal activity against Sporothrix schenckii after 72 to 96 hrs by broth microdilution technique; assay type: functional
# [4] = tested on: Trichophyton mentagrophytes; experiment: Antifungal activity against Trichophyton mentagrophytes after 72 to 96 hrs by broth microdilution technique; assay type: functional
# [5] = tested on: Aspergillus fumigatus; experiment: Antifungal activity against Aspergillus fumigatus after 72 to 96 hrs by broth microdilution technique; assay type: functional
# [6] = tested on: Cryptococcus neoformans; experiment: Antifungal activity against Cryptococcus neoformans after 24 to 48 hrs by broth microdilution technique; assay type: functional
# [7] = tested on: Candida albicans; experiment: Anticandidal activity against Candida albicans ATCC10231 after 24 to 48 hrs by broth microdilution technique; assay type: functional
# [8] = tested on: Candida albicans; experiment: Anticandidal activity against Candida albicans ATCC14053 after 24 to 48 hrs by broth microdilution technique; assay type: functional
# [9] = tested on: Candida albicans; experiment: Anticandidal activity against Candida albicans CDRI after 24 to 48 hrs by broth microdilution technique; assay type: functional
# [10] = tested on: Candida albicans; experiment: Anticandidal activity against Candida albicans isolated from patient after 24 to 48 hrs by broth microdilution technique; assay type: functional
# [11] = tested on: Candida albicans; experiment: Anticandidal activity against Candida albicans MTCC183 after 24 to 48 hrs by broth microdilution technique; assay type: functional
# [12] = tested on: Candida albicans; experiment: Anticandidal activity against Candida albicans ATCC750 after 24 to 48 hrs by broth microdilution technique; assay type: functional
# [13] = tested on: Candida albicans; experiment: Anticandidal activity against Candida albicans ATCC-MYA 2950 after 24 to 48 hrs by broth microdilution technique; assay type: functional
# [14] = tested on: Candida albicans; experiment: Anticandidal activity against amphotericin-B resistant Candida albicans after 24 to 48 hrs by broth microdilution technique; assay type: functional
# [15] = tested on: Candida albicans; experiment: Ratio of fluconazole MIC to compound MIC against amphotericin-B resistant Candida albicans after 24 to 48 hrs by broth microdilution technique; assay type: functional
# [16] = tested on: L929; experiment: Cytotoxicity against mouse L929 cells assessed as morphological changes up to 3.12 ug/ml after 24 hrs by giemsa staining based phase contrast microscopy; assay type: cell-based; conditions: l929, 24 h
# [17] = tested on: L929; experiment: Cytotoxicity against mouse L929 cells assessed as decline in cell survival at 12.5 to 50 ug/ml after 24 hrs by spectrophotometric analysis; assay type: cell-based; conditions: l929, 24 h
# [18] = tested on: Sporothrix schenckii; experiment: Ratio of fluconazole MIC to compound MIC against Sporothrix schenckii after 72 to 96 hrs by broth microdilution technique; assay type: functional
# [19] = tested on: Sporothrix schenckii; experiment: Ratio of clotrimazole MIC to compound MIC against Sporothrix schenckii after 72 to 96 hrs by broth microdilution technique; assay type: functional
Compound,MIC [1] [µg/mL],MIC [2] [µg/mL],MIC [3] [µg/mL],MIC [4] [µg/mL],MIC [5] [µg/mL],MIC [6] [µg/mL],MIC [7] [µg/mL],MIC [8] [µg/mL],MIC [9] [µg/mL],MIC [10] [µg/mL],MIC [11] [µg/mL],MIC [12] [µg/mL],MIC [13] [µg/mL],MIC [14] [µg/mL],Ratio [15],Activity [16],Activity [17],Ratio [18],Ratio [19]
COc1cc(/C=C2\SC(=S)N(Cc3ccncc3)C2=O)cc(OC)c1OC,12.5,50,25,50,> 50,50,–,–,–,–,–,–,–,–,–,–,–,–,–
O=C1CSC(=S)N1Cc1ccncc1,1.56,6.25,1.56,3.12,12.5,6.25,6.25,1.56,6.25,6.25,0.78,6.25,6.25,3.12,2,Non-toxic,Toxic,–,–
O=C1/C(=C/c2ccc(F)cc2)SC(=S)N1Cc1ccncc1,12.5,25,0.39,3.12,> 50,25,–,–,–,–,–,–,–,–,–,Non-toxic,Toxic,12,12
COc1ccc(/C=C2\SC(=S)N(Cc3ccncc3)C2=O)cc1,50,50,> 50,> 50,> 50,> 50,–,–,–,–,–,–,–,–,–,–,–,–,–
O=C1/C(=C/c2ccccc2)SC(=S)N1Cc1ccncc1,25,50,25,50,> 50,50,–,–,–,–,–,–,–,–,–,–,–,–,–
O=C1/C(=C/c2ccc(Cl)cc2)SC(=S)N1Cc1ccncc1,50,> 50,> 50,> 50,> 50,> 50,–,–,–,–,–,–,–,–,–,–,–,–,–
O=C1/C(=C/c2ccc(OCCCCOc3ccc(/C=C4\SC(=S)N(Cc5ccncc5)C4=O)cc3)cc2)SC(=S)N1Cc1ccncc1,> 50,> 50,> 50,> 50,> 50,> 50,–,–,–,–,–,–,–,–,–,–,–,–,–
CCSC(=S)NCc1ccncc1,3.12,3.12,1.56,3.12,50,3.12,6.25,3.12,6.25,12.5,1.56,12.5,12.5,1.56,5,Non-toxic,Toxic,–,–
O=C1/C(=C/c2cc3c(cc2[N+](=O)[O-])OCO3)SC(=S)N1Cc1ccncc1,0.78,3.12,1.56,3.12,> 50,3.12,3.12,1.56,3.12,1.56,3.12,6.25,1.56,12.5,–,Non-toxic,Toxic,–,–
O=C1/C(=C/c2ccc([N+](=O)[O-])cc2)SC(=S)N1Cc1ccncc1,50,> 50,25,> 50,> 50,> 50,–,–,–,–,–,–,–,–,–,–,–,–,–
O=C1/C(=C/c2ccc(OCCCOc3ccc(/C=C4\SC(=S)N(Cc5ccncc5)C4=O)cc3)cc2)SC(=S)N1Cc1ccncc1,> 50,> 50,> 50,> 50,> 50,> 50,–,–,–,–,–,–,–,–,–,–,–,–,–
O=C1/C(=C/c2ccccc2[N+](=O)[O-])SC(=S)N1Cc1ccncc1,3.12,3.12,6.25,6.25,> 50,6.25,–,–,50,25,12.5,50,50,3.12,2,–,–,–,–
O=C1/C(=C/c2ccccc2F)SC(=S)N1Cc1ccncc1,12.5,50,1.56,6.25,> 50,3.12,–,–,–,–,–,–,–,–,–,–,–,–,–
O=C1/C(=C/c2ccncc2)SC(=S)N1Cc1ccncc1,1.56,1.56,3.12,3.12,25,1.56,1.56,6.25,3.12,3.12,0.78,6.25,1.56,3.12,2,Non-toxic,Toxic,–,–
